Molecular target: T1, IGF-1R (Homo sapiens, UniProt P08069)
T1 construct: expressed in transfected cells
Test: Example B-2: IGF-1R Assay (PathHunter cell lines, EC80 agonist challenge, chemiluminescent detection)
Type: cell-based
Details: PathHunter cells, compound 60 minutes at 37° C., EC80 agonist 3 hours; read-out: IC50, Biological Activity against IGF-1R (Table B2)
Experimental: PathHunter cell lines were expanded from freezer stocks according to standard procedures. Cells were seeded in a total volume of 20 μL into white walled, 384-well microplates and incubated for the appropriate time prior to testing.
Cells are pre-incubated with compound followed by EC80 agonist challenge as follows: • R. 1. Intermediate dilution of sample stocks was performed to generate 5× sample in assay buffer. • 2. 5 μL of 5× sample was added to cells and incubated at 37° C. for 60 minutes. Vehicle concentration was 1%. • 3. 5 IL of 6× EC80 agonist in assay buffer was added to the cells and incubated at room temperature for 3 hours.
Assay signal was generated through a single addition of 12.5 or 15 μL (50% v/v) of PathHunter Detection reagent cocktail for agonist and antagonist assays respectively, followed by a one hour incubation at room temperature. Microplates were read following signal generation with a PerkinElmer Envision™ instrument for chemilumine-scent signal detection.
Compound activity was analyzed using CBIS data analysis suite (ChemInnovation, CA). Percentage inhibition was calculated using the following formula: % Inhibition=100%×(1−(mean RLU of test sample−mean RLU of vehicle control)/(mean RLU of EC80 control−mean RLU of vehicle control)). The activity for representative examples of the invention is shown in the following table, wherein A: IC50≤500 nM; B: 500 nM<IC50≤2 μM; C: 2 μM<IC50≤10 μM; D: IC50>10 μM.

T1 sequence (P08069 31-1367): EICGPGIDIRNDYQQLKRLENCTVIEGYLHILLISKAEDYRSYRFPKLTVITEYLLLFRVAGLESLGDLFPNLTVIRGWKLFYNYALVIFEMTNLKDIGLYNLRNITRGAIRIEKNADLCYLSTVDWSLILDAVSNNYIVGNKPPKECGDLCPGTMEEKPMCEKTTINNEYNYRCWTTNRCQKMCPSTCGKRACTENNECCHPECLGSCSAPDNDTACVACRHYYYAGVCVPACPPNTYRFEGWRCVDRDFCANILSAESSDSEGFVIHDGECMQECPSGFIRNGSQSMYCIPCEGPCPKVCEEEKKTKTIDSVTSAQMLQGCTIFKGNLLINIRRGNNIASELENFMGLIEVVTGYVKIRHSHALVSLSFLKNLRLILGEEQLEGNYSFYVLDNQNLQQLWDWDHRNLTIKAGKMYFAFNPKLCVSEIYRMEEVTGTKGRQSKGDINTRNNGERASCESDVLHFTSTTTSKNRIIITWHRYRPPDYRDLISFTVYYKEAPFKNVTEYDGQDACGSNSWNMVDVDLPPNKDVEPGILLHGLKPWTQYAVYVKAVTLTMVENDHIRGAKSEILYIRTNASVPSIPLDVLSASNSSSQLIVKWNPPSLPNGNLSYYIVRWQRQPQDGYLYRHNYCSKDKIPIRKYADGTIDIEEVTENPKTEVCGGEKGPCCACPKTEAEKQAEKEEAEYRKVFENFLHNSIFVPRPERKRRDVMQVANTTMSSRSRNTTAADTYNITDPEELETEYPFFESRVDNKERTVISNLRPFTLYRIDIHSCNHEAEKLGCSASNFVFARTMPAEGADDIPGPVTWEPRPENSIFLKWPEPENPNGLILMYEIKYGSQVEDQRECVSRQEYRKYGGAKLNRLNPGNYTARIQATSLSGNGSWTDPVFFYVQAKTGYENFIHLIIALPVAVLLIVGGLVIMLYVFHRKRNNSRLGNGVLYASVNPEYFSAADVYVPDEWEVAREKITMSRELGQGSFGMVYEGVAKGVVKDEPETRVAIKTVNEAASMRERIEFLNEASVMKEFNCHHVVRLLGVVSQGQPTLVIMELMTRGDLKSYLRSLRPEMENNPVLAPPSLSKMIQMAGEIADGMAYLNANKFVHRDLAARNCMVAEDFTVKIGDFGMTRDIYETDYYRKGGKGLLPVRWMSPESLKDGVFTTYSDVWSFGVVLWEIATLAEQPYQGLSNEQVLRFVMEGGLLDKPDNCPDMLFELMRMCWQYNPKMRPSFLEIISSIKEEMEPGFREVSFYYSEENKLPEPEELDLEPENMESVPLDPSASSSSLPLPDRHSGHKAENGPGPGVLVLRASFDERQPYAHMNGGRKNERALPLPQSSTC

SMILES	IC50 [µM]
Cn1ccnc1CNc1cc(CN2C(=O)N(c3ccc(C4(C(F)(F)F)CC4)cc3)C(=O)C2(C)C)ccn1 [Compound 183, 5,5-dimethyl-1-((2-(((1-methyl-1H-imidazol-2-yl)methyl)amino)pyridin-4-yl)methyl)-3-(4-(1-(trifluoromethyl)cyclopropyl)phenyl) imidazolidine-2,4-dione]	≤ 0.5
CC1CCc2c(CN3C(=O)N(c4ccc(C5(C(F)(F)F)CC5)cc4)C(=O)C3(C)C)ccnc2N1 (stereo not shown) [Compound 55, 5,5-dimethyl-1-((7-methyl-5,6,7,8-tetrahydro-1,8-naphthyridin-4-yl)methyl)-3-(4-(1-(trifluoromethyl)cyclopropyl)phenyl) imidazolidine-2,4-dione]	≤ 0.5
CC(C)(C#N)c1ccc(N2C(=O)N(Cc3ccnc(NC4CC4)c3)C(C)(C)C2=O)cc1 [Compound 149, 2-(4-(3-((2-(cyclopropylamino)pyridin-4-yl)methyl)-4,4-dimethyl-2,5-dioxoimidazolidin-1-yl)phenyl)-2-methylpropanenitrile]	≤ 0.5
CC1(C)C(=O)N(c2ccc(C3(C#N)CC3(C)C)cc2)C(=O)N1Cc1ccnc(N[C@H]2[C@@H]3COC[C@@H]32)c1 (stereo partly drawn) [Compound 170, 1-(4-(3-((2-(((1R,5S,6r)-3-oxabicyclo[3.1.0]hexan-6-yl)amino)pyridin-4-yl)methyl)-4,4-dimethyl-2,5-dioxoimidazolidin-1-yl)phenyl)-2,2-dimethylcyclopropane-1-carbonitrile]	≤ 0.5
CC(Nc1cc(CN2C(=O)N(c3ccc(C4(C(F)(F)F)CC4)cc3)C(=O)C2(C)C)ccn1)c1cnccn1 (stereo not shown) [Compound 168, 5,5-dimethyl-1-((2-((1-(pyrazin-2-yl)ethyl)amino)pyridin-4-yl)methyl)-3-(4-(1-(trifluoromethyl)cyclopropyl)phenyl) imidazolidine-2,4-dione]	≤ 0.5
CC1(C)C(=O)N(c2ccc3c(c2)N(S(C)(=O)=O)CC3)C(=O)N1Cc1ccnc2c1CC(=O)N2 [Compound 67, 5,5-dimethyl-3-(1-(methylsulfonyl)indolin-6-yl)-1-((2-oxo-2,3-dihydro-1H-pyrrolo [2,3-b]pyridin-4-yl)methyl)imidazolidine-2,4-dione]	> 10
CC(C)(Br)Cc1cn(S(C)(=O)=O)c2cc(N3C(=O)N(Cc4ccnc5c4CC(=O)N5)C(C)(C)C3=O)ccc12 [Compound 41, 3-(3-(2-bromo-2-methylpropyl)-1-(methylsulfonyl)-1H-indol-6-yl)-5,5-dimethyl-1-((2-oxo-2,3-dihydro-1H-pyrrolo[2,3-b]pyridin-4-yl)methyl)imidazolidine-2,4-dione]	≤ 0.5
CC1(C)COc2cc(N3C(=O)N(Cc4ccnc5c4CC(=O)N5)C(C)(C)C3=O)c(Br)cc21 [Compound 53, 3-(5-bromo-3,3-dimethyl-2,3-dihydrobenzofuran-6-yl)-5,5-dimethyl-1-((2-oxo-2,3-dihydro-1H-pyrrolo[2,3-b]pyridin-4-yl)methyl)imidazolidine-2,4-dione]	0.5 to 2
Cn1nc(C(C)(C)C)c(Br)c1N1C(=O)N(Cc2ccnc3c2CC(=O)N3)C(C)(C)C1=O [Compound 47, 3-(4-bromo-3-(tert-butyl)-1-methyl-1H-pyrazol-5-yl)-5,5-dimethyl-1-((2-oxo-2,3-dihydro-1H-pyrrolo[2,3-b]pyridin-4-yl)methyl)imidazolidine-2,4-dione]	2 to 10
CC(C)Nc1cc(CN2C(=O)N(c3cnc4c(c3)N(C)CC4(C)C)C(=O)C2(C)C)ccn1 [Compound 197, 1-((2-(isopropylamino)pyridin-4-yl)methyl)-5,5-dimethyl-3-(1,3,3-trimethyl-2,3-dihydro-1H-pyrrolo[3,2-b]pyridin-6-yl)imidazolidine-2,4-dione]	2 to 10
CC(C)Nc1cc(CN2C(=O)N(c3ccc(C4(C#N)CC4(C)C)cc3)C(=O)C2(C)C)ccn1 (stereo not shown) [Compound 145, 1-(4-(3-((2-(isopropylamino)pyridin-4-yl)methyl)-4,4-dimethyl-2,5-dioxoimidazolidin-1-yl)phenyl)-2,2-dimethylcyclopropane-1-carbonitrile]	≤ 0.5
CCOC[C@H](C)Nc1cc(CN2C(=O)N(c3ccc(C4(C(F)(F)F)CC4)cc3)C(=O)C2(C)C)ccn1 [Compound 157, (S)-1-((2-((1-ethoxypropan-2-yl)amino)pyridin-4-yl)methyl)-5,5-dimethyl-3-(4-(1-(trifluoromethyl)cyclopropyl)phenyl) imidazolidine-2,4-dione]	≤ 0.5

Next, values leading:

IC50 [µM]	SMILES
≤ 0.5	CC1(C)CN(S(C)(=O)=O)c2cc(N3C(=O)N(Cc4ccnc(NCc5cc[nH]n5)c4)C(C)(C)C3=O)ccc21 [Compound 245, 1-((2-(((1H-pyrazol-3-yl)methyl)amino)pyridin-4-yl)methyl)-3-(3,3-dimethyl-1-(methylsulfonyl)indolin-6-yl)-5,5-dimethylimidazolidine-2,4-dione]
≤ 0.5	COC[C@@H](C)Nc1cc(CN2C(=O)N(c3ccc4c(c3)N(S(C)(=O)=O)CC43CC3)C(=O)C2(C)C)ccn1 [Compound 213, (R)-1-((2-((1-methoxypropan-2-yl)amino)pyridin-4-yl)methyl)-5,5-dimethyl-3-(1′-(methylsulfonyl)spiro[cyclopropane-1,3′-indolin]-6′-yl)imidazolidine-2,4-dione]
0.5 to 2	CC(C)Nc1cc(CN2C(=O)N(c3ccc(S(=O)(=O)C(C)(C)C)cc3)C(=O)C2(C)C)ccn1 [Compound 354, 3-(4-(tert-butylsulfonyl)phenyl)-1-((2-(isopropylamino)pyridin-4-yl)methyl)-5,5-dimethylimidazolidine-2,4-dione]
≤ 0.5	COC[C@@H](C)Nc1cc(CN2C(=O)N(c3ccc4c(c3)N(S(C)(=O)=O)CC43CCC3)C(=O)C2(C)C)ccn1 [Compound 205, (R)-1-((2-((1-methoxypropan-2-yl)amino)pyridin-4-yl)methyl)-5,5-dimethyl-3-(1′-(methylsulfonyl)spiro[cyclobutane-1,3′-indolin]-6′-yl)imidazolidine-2,4-dione]
2 to 10	CN1C[C@@H](Nc2cc(CN3C(=O)N(c4ccc(S(=O)(=O)C(F)(F)F)cc4)C(=O)C3(C)C)ccn2)CC1=O [Compound 323, (S)-5,5-dimethyl-1-((2-((1-methyl-5-oxopyrrolidin-3-yl)amino)pyridin-4-yl)methyl)-3-(4-((trifluoromethyl)sulfonyl)phenyl) imidazolidine-2,4-dione]
≤ 0.5	CC1(C)C(=O)N(c2ccc3c(c2)N(S(C)(=O)=O)CC32CC2)C(=O)N1Cc1ccnc(N[C@H]2[C@@H]3COC[C@@H]32)c1 [Compound 222, 1-((2-(((1R,5S,6r)-3-oxabicyclo[3.1.0]hexan-6-yl)amino)pyridin-4-yl)methyl)-5,5-dimethyl-3-(1′-(methylsulfonyl)spiro[cyclopropane-1,3′-indolin]-6′-yl)imidazolidine-2,4-dione]
≤ 0.5	CN(C)CC(=O)Nc1cc(N2C(=O)N(Cc3ccnc(N[C@H]4[C@@H]5COC[C@@H]54)c3)C(C)(C)C2=O)ccc1OC(F)(F)F [Compound 281, N-(5-(3-((2-(((1R,5S,6r)-3-oxabicyclo[3.1.0]hexan-6-yl)amino)pyridin-4-yl)methyl)-4,4-dimethyl-2,5-dioxoimidazolidin-1-yl)-2-(trifluoromethoxy)phenyl)-2-(dimethylamino)acetamide]

— patent publication US20250145585A1, “HETEROCYCLIC INHIBITORS OF IGF-1R FOR TREATMENT OF DISEASE” (HORIZON THERAPEUTICS IRELAND DAC, priority 2023, published 2025)
